This test relates to MCP-1 production. The test is described as follows: LPS induced MCP-1 production from human whole blood. The format is cell-based. To be noted: LPS 200 ng/mL, 18-24 hours, read-out: mean pIC50, LPS induced MCP-1 production (converted). As for the experimental part: Activation of monocytic cells by agonists of toll-like receptors such as bacterial lipopolysaccharide (LPS) results in production of key inflammatory mediators including MCP-1. Such pathways are widely considered to be central to the pathophysiology of a range of auto-immune and inflammatory disorders.
Blood is collected in a tube containing Sodium heparin (Leo Pharmaceuticals) (10 units of heparin/mL of blood). 96-well compound plates containing 0.5 μL test sample (compound) in 100% DMSO were prepared (two replicates on account of donor variability). 130 μL of whole blood was dispensed into each well of the 96-well compound plates and incubated for 30 min at 37° C., 5% CO2. 10 μL of lipopolysaccharide (from Salmonella typhosa; L6386) made up in PBS (200 ng/mL final assay concentration) was added to each well of the compound plates. The plates were then placed in the humidified primary cell incubator for 18-24 hours at 37° C., 5% CO2. 140 μL of PBS was added to all wells of the compound plates containing blood. The plates were then sealed and centrifuged for 10 mins at 2500 rpm (r.t). […] 150 μL of 2×MSD Read Buffer T (stock 4×MSD Read Buffer T was diluted 50:50 with de-ionised water) was then added to each well and the plates read on the MSD Sector Imager 6000. Concentration response curves for each compound were generated from the data and an IC50 value was calculated.

Regarding `Cc1cc(-c2nc(C(=O)O)cn2Cc2ccccc2)cn(C)c1=O` [Example 34, 1-benzyl-2-(1,5-dimethyl-6-oxo-1,6-dihydropyridin-3-yl)-1H-imidazole-4-carboxylic acid], the IC50 was more than 20 µM.

The values above are taken from US20190202799A1, “IMIDAZOLE DERIVATIVES AND THEIR USE IN THE TREATMENT OF AUTOIMMUNE OR INFLAMMATORY DISEASES OR CANCERS” (GLAXOSMITHKLINE INTELLECTUAL PROPERTY (No.2) LIMITED, priority 2016, published 2019).
